Laboratory results from the Kinase Knowledgebase extract (Sharma et al. 2016).

Molecular target: ROCK2 (human) (UniProt O75116)
Assay: Inhibition of ROCK2 Kinase Activity

Sequence of ROCK2 (human) (O75116 whole entry, looked up): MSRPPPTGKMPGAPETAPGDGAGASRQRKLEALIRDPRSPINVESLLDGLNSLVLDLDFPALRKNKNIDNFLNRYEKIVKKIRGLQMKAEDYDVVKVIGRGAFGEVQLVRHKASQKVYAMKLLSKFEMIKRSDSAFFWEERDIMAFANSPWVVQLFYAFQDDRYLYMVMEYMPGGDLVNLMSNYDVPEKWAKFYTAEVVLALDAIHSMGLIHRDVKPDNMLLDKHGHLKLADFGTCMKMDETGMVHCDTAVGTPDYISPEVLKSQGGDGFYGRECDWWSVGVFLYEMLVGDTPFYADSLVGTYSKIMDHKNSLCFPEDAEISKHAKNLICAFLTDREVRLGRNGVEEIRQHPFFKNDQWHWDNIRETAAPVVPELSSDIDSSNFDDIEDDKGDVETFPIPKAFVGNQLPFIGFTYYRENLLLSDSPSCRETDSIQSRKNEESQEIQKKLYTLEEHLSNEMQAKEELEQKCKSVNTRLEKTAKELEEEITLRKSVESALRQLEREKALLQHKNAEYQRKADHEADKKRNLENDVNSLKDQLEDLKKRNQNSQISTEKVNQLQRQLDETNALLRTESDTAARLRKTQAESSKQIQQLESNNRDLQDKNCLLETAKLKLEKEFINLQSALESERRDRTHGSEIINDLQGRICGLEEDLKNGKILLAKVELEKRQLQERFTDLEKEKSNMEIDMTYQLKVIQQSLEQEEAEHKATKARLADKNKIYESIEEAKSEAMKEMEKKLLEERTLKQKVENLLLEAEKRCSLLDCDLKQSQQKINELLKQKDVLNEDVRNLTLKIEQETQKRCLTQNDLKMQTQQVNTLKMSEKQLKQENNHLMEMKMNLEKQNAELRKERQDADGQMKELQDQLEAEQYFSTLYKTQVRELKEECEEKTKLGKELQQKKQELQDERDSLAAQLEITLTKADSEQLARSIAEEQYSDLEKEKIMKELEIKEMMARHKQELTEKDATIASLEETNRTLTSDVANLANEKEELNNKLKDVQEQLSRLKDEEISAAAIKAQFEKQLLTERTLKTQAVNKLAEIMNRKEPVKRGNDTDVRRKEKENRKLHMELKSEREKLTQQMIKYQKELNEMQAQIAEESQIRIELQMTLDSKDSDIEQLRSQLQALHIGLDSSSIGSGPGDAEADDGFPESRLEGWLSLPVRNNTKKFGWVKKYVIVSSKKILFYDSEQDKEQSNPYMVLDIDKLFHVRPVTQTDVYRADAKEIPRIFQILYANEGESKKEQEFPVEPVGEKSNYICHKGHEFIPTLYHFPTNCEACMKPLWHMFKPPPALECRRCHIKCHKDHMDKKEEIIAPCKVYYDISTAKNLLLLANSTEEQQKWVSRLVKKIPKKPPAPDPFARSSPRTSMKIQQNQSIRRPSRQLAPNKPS

IC50 [µM] | Structure (SMILES)
0.04 | c1ccc(CCc2nc3ccc(-c4cn[nH]c4)cc3s2)cc1
0.036 | Nc1cc(-c2ccc3nc(C4COc5ccccc5C4)oc3c2)ccn1 (centres undefined)
0.0043 | COc1cccc(CN(CCCN(C)C)C(=O)c2nc3ccc(-c4cn[nH]c4)cc3s2)c1
0.042 | COc1cccc(OCc2nc3ccc(-c4cn[nH]c4)cc3s2)c1
0.029 | NCCC(=O)N1CC(C(=O)Nc2nc3ccc(-c4cn[nH]c4)cc3s2)CC1c1ccccc1 (centres undefined)
0.044 | c1ccc(OCc2nc3ccc(-c4cn[nH]c4)cc3s2)cc1
0.007 | COc1cccc(CN(CCO)C(=O)c2nc3ccc(-c4cn[nH]c4)cc3s2)c1
0.05 | O=C(Nc1nc2ccc(-c3cn[nH]c3)cc2s1)[C@H]1CNC[C@@H]1c1ccccc1
0.002 | CN(C)CCN(Cc1ccccc1)C(=O)c1nc2ccc(-c3cn[nH]c3)cc2s1
0.014 | O=C(Nc1nc2ccc(-c3cn[nH]c3)cc2s1)C1COc2ccccc2C1 (centres undefined)
0.0015 | COc1ccc2c(c1)CC(c1nc3ccc(-c4cn[nH]c4)cc3o1)CO2 (centres undefined)
0.018 | Nc1cc(-c2ccc3nc(C4COc5ccc(F)cc5C4)oc3c2)ccn1 (centres undefined)
0.001 | CN(C)CCN(Cc1cccc(F)c1)C(=O)c1nc2ccc(-c3cn[nH]c3)cc2s1
0.021 | COc1cccc(CNC(=O)c2nc3ccc(-c4cn[nH]c4)cc3s2)c1
0.579 | COc1ccc2c(c1)CC(c1nc3cc(-c4ccncc4)cnc3s1)CO2 (centres undefined)
0.008 | COc1ccc2c(c1)CC(c1nc3ccc(-c4ccnc(N)c4)cc3o1)CO2 (centres undefined)
0.006 | COc1ccc2c(c1)CC(c1nc3ccc(-c4ccncc4)cc3o1)CO2 (centres undefined)

IC50 [µM] | Structure (SMILES)
0.022 | O=C(Nc1nc2ccc(-c3cn[nH]c3)cc2s1)C1COc2ccc(F)cc2C1 (centres undefined)
0.035 | CN(C)CCNC(=O)c1cccc(CN(C(=O)c2nc3ccc(-c4cn[nH]c4)cc3s2)C2CC2)c1
0.023 | Nc1nccc(-c2ccc3nc(C4COc5ccc(F)cc5C4)sc3c2)n1 (centres undefined)
0.043 | COc1cccc(CN(CCN2CCCC2)C(=O)c2nc3ccc(-c4cn[nH]c4)cc3s2)c1
0.219 | COc1ccc2c(c1)CC(c1nc3cc(-c4cn[nH]c4)ccc3o1)CO2 (centres undefined)
0.933 | COc1ccc2c(c1)CC(c1nc3cc(-c4ccnc(N)n4)ccc3o1)CO2 (centres undefined)
0.03 | Fc1ccc2c(c1)CC(c1nc3ccc(-c4cn[nH]c4)cc3o1)CO2 (centres undefined)
1.93 | COc1cccc(C(=O)Nc2nc3ccc(-c4ccncc4)cc3s2)c1
0.017 | c1ccc2c(c1)OCC(c1nc3ccc(-c4cn[nH]c4)cc3s1)O2 (centres undefined)
0.008 | COc1cccc(CN(CCN(C)C)C(=O)Nc2nc3ccc(-c4cn[nH]c4)cc3s2)c1
0.00087 | CN(C)CCCNC(=O)c1ccc2c(c1)CC(c1nc3ccc(-c4cn[nH]c4)cc3s1)CO2 (centres undefined)
0.518 | COc1ccc2c(c1)CC(c1nc3cc(-c4ccnc5[nH]ccc45)ccc3o1)CO2 (centres undefined)
5 | COc1ccc(CNc2nc3ccc(-c4ccncc4)cc3s2)cc1
0.016 | COc1ccc2c(c1)CC(c1nc3ccc(-c4c[nH]nc4C)cc3o1)CO2 (centres undefined)
0.009 | Cc1n[nH]cc1-c1ccc2nc(C3COc4ccc(F)cc4C3)oc2c1 (centres undefined)
0.021 | Nc1nccc(-c2ccc3nc(C4COc5ccccc5O4)oc3c2)n1 (centres undefined)
0.037 | NCC(=O)N1C[C@H](C(=O)Nc2nc3ccc(-c4cn[nH]c4)cc3s2)[C@@H](c2ccccc2)C1
